The values below come from patent US8420852B2, “Phospholipase A2 inhibitors and their use in treating neurological injury and disease” (The Regents of the University of California, priority 2007, dated 2013).

“Also recorded” adds a separate entry of the source.

For experiment [1], the system named is SJL/J mice induced with EAE. Nature of the experiment: EAE model of multiple sclerosis, clinical score. In kind it is in vivo, mouse.
Experiment [2] concerns C57BL/6 mice with EAE. The settings on record: C57BL/6 mouse strain, previously shown; cited from earlier work.

As to `CCCCCCCCCCCCCCC(=O)C(=O)NCCCC(=O)O` [AX006, 4-(2-oxohexadecanoyl)amino butyric acid], the “clinical disability score at day 40” value in experiment [1] (treatment before onset from day 5/6, stopped day 27, vehicle 2.4) is listed as 1.6. For the same compound, the “clinical score at day 18” value in experiment [1] (treatment before onset from day 5/6, vehicle grade 2, 5-point scale) is given as 0.5. Moreover, in experiment [1] (treatment before onset of symptoms, from day 5/6 after immunization, daily for 3 weeks), the “clinical course of EAE vs vehicle control” value is recorded as “significant during the first paralytic episode; also recorded: significant reduction of disease severity”.

Consider `CCCCC/C=C\C/C=C\C/C=C\C/C=C\CCCC(=O)C(F)(F)F` [AACOCF3, arachidonyltrifluoromethyketone], for which the “onset and progression of EAE” value in experiment [2] was “markedly reduce the onset and progression of the disease”.
